# Results published in patent US20040106658A1, “Heterocyclic fluoroalkenyl thioethers and the use thereof as pesticides(III)” (priority 2000, published 2004).
# Where two headings read alike, the source gives them in different places.
# Experiments:
# Meloidogyne incognita = test: Meloidogyne test (gall formation on lettuce roots); format: in vivo; details: 20 ppm active compound, after 14 days
# Method: To produce a suitable preparation of active compound, 1 part by weight of active compound is mixed with the stated amounts of solvent and emulsifier, and the concentrate is diluted with water to the desired concentration.
# Containers are filled with sand, solution of active compound, Meloidogyne incognita egg/larvae suspension and lettuce seeds. The lettuce seeds germinate and the plants develop. On the roots, galls are formed.
# After the desired period of time, the nematicidal action is determined in % using gall formation as a measure. 100% means that no galls were found; 0% means that the number of galls on the treated plants corresponds to that of the untreated control.
# [1] = logP by HPLC (EEC Directive 79/831 Annex V.A8, gradient method); format: physicochemical; details: for logP (pH 2): HPLC, acetonitrile/0.1% aqueous phosphoric acid; for chromatographic logP: pH 2.3
# [2] = test system: Boophilus microplus (SP-resistant Parkhurst strain); test: Test with Boophilus microplus resistant (SP-resistant Parkhurst strain), injection; format: in vivo; details: injected, checked after 7 days; for kill (activity: no oviposition of fertile eggs): 0.8 μg active compound per animal; for activity (no oviposition of fertile eggs): 0.16 μg active compound per animal
# Method: Test With Boophilus Microplus Resistant (SP-Resistant Parkhurst Strain)
# 20 mg of active compound are dissolved in 1 ml of dimethyl sulphoxide, more dilute concentrations are prepared by dilution in the same solvent.
# The test is carried out in 5 replications. 1 μl of the solutions is injected into the abdomen, and the animals are transferred into dishes and kept in a climatized room. After 7 days, the activity is checked by examination for oviposition of fertile eggs. Eggs whose fertility is not visible from the outside are stored in glass tubes in a controlled-environment cabinet until the larvae have hatched. An activity of 100% means that no tick has produced any fertile eggs.
# [3] = test system: larvae of the mustard beetle (Phaedon cochleariae); test: Phaedon larvae test (cabbage leaf dip); format: in vivo; details: active compound concentration 0.1%, after 7 days
# Method: (§1) To produce a suitable preparation of active compound, 1 part by weight of active compound is mixed with the stated amounts of solvent and emulsifier, and the concentrate is diluted with emulsifier-containing water to the desired concentration.
# After the desired period of time, the kill in % is determined. 100% means that all beetle larvae have been killed; 0% means that none of the beetle larvae have been killed.
# [4] = test system: greenhouse red spider mite (Tetranychus urticae); test: Tetranychus test (OP-resistant/dip treatment); format: in vivo; details: active compound concentration 0.1%, after 7 days
# Method: Tetranychus Test (OP-Resistant/Dip Treatment)
# as §1
# Bean plants (Phaseolus vulgaris) which are heavily infested by all stages of the greenhouse red spider mite (Tetranychus urticae) are dipped into a preparation of active compound of the desired concentration.
# After the desired period of time, the effect in % is determined. 100% means that all spider mites have been killed; 0% means that none of the spider mites have been killed.
# [5] = test system: peach aphid (Myzus persicae); test: Myzus test (cabbage leaf dip); format: in vivo; details: active compound concentration 0.1%, after 6 days
# Method: as §1
# Cabbage leaves (Brassica oleracea) which are heavily infested by the peach aphid (Myzus persicae) are treated by being dipped into the preparation of active compound of the desired concentration.
# After the desired period of time, the kill in % is determined. 100% means that all aphids have been killed; 0% means that none of the aphids have been killed.
# Lucilia cuprina larvae = test: Blowfly larvae test (development-inhibitory action); format: in vivo; details: 100 ppm active compound
# Method: Blowfly Larvae Test (Development-Inhibitory Action)
# 20 mg of active compound are dissolved in 1 ml of dimethyl sulphoxide, more dilute concentrations are prepared by dilution with distilled water.
# About 20 Lucilia cuprina larvae are introduced into a test tube which contains about 1 cm^3 of horse meat and 0.5 ml of the preparation of active compound to be tested. After 24 hours and 48 hours, the efficacy of the preparation of active compound is determined. The test tubes are transferred into a beaker whose bottom is covered with sand. After a further 2 days, the test tubes are removed and the pupae are counted.
# The efficacy of the preparation of active compound is assessed by the number of flies that have hatched after 1.5 times the period of development of an untreated control. 100% means that no flies have hatched; 0% means that all flies have hatched normally.
# [6] = test system: Ctenocephalides felis, strain "Georgi"; test: Test with cat fleas/oral uptake; format: in vivo; details: 100 ppm in citrated cattle blood, after 28 h
# Method: Test With Cat Fleas/Oral Uptake
# To produce a suitable formulation, a suitable solution of active compound is prepared from 20 mg of active compound and 1 ml of DMSO. 15 μl of this formulation are added to 3 ml of citrated cattle blood and stirred.
# 10 unfed adult fleas (Ctenocephalides felis, strain “Georgi”) are placed into a chamber (Ø3.2 cm) whose top and bottom are closed with gauze. A metal cylinder whose underside is covered with parafilm is placed onto the chamber. The cylinder contains 3 ml of blood/active compound formulation which can be taken up by the fleas through the parafilm membrane. Whereas the blood is warmed to 37° C., the temperature in the area of the flea chambers is adjusted to 25° C. Controls are mixed with the same volume of DMSO, without addition of a compound. The determinations are carried out in triplicate.
# After 28 h, the mortality in % (=dead fleas) is determined.
# Compounds which effect an at least 25% kill of the fleas within 28 h are judged to be effective.
Structure (SMILES),"nematicidal action (activity, gall formation as a measure) (Meloidogyne incognita)",logP (pH 2) [1],activity (no oviposition of fertile eggs) [2],further results
FC(F)=C(F)CCCCSc1nc(Cl)c(Cl)s1 [Example 5],98%,5.33,–,kill (activity: no oviposition of fertile eggs) [2]: 100%; kill [3]: 100%
Cc1csc(SCCCCC(F)=C(F)F)n1 [Example 9],–,3.85,–,–
FC(F)=C(F)CCCCSc1nc(-c2ccccc2)c(-c2ccccc2)o1 [Example 7],100%,5.96,–,–
Cc1nc(SCCCCC(F)=C(F)F)sc1C [Example 11],–,4.20,–,–
"[O-][S+](CCCCC(F)=C(F)F)c1nc(-c2ccccc2)cs1 (stereo not shown) [Example 2, 4-phenyl-2-(6,6,5-trifluorohex-5-enylsulphinyl)-1,3-thiazole]",–,–,100%,chromatographic logP ([1]; read-out: logP (pH 2.3)): 3.47
FC(F)=C(F)CCCCSc1nc(Cl)c(C(F)(F)F)s1 [Example 10],–,5.40,–,–
FC(F)=CCCCCSc1nc(Cl)c(Cl)s1 [Example 6],100%,5.53,–,kill [4]: 100%; kill [3]: 100%; kill [5]: 95%
FC(F)=CCCCCSc1nc(-c2ccccc2)c(-c2ccccc2)o1 [Example 8],100%,6.14,–,kill (activity: no oviposition of fertile eggs) [2]: 100%; kill [4]: 98%; kill [3]: 100%; kill (efficacy: flies not hatched) (Lucilia cuprina larvae): 100%
FC(F)=CCCCCSc1nc(Cl)c(C(F)(F)F)s1 [Example 12],–,5.62,–,–
FC(F)=CCCCCSc1nc(-c2ccccc2)cs1 [Example 4],100%,5.38,100%,kill (activity: no oviposition of fertile eggs) [2]: 100%; kill [4]: 98%; kill (mortality) [6]: 100%
"O=S(=O)(CCCCC(F)=C(F)F)c1nc(-c2ccccc2)cs1 [Example 3, 4-phenyl-2-(6,6,5-trifluorohex-5-enylsulphonyl)-1,3-thiazole]",–,–,100%,chromatographic logP [1]: 3.67
"FC(F)=C(F)CCCCSc1nc(-c2ccccc2)cs1 [Example 1, 4-phenyl-2-(6,6,5-trifluorohex-5-enylthio)-1,3-thiazole]",100%,–,100%,chromatographic logP ([1]; read-out: logP (pH 2.3)): 5.21
